Measurements taken from publication PMC8124228, “New Hybrids Based on Curcumin and Resveratrol: Synthesis, Cytotoxicity and Antiproliferative Activity against Colorectal Cancer Cells” (Molecules, 2021).
Converted amounts (≈) assume the structure as drawn. Like-named read-outs stand apart in the source and are kept apart here.

Key:
[1] = tested on: tubulin polymerization; design: method as in PMID 26515041; conditions: evaluated in HCT-116 cells; cited from earlier work
[2] = tested on: MDA-MB-231/ATCC, PC-3, SNB-75, RPMI-8226, MOLT-4, CCRF-CEM and HS 578T cell lines; design: method as in doi:10.1007/s00044-014-1146-2; conditions: mean over cell lines; cited from earlier work
[3] = tested on: SW480 cells; design: method as in doi:10.1007/s00044-018-2202-0; conditions: SW480, 48 h; cited from earlier work
[4] = tested on: A549 cell line; conditions: cited from earlier work
[5] = tested on: tubulin polymerization; conditions: cited from earlier work
[6] = tested on: HepG2 cell line; conditions: cited from earlier work
[7] = tested on: B16-F10 cell line; conditions: cited from earlier work
[8] = tested on: non-malignant CHO-K1 cell line; assay: Sulforhodamine B (SRB) cytotoxicity assay, non-malignant cells; type: cell-based; conditions: Cricetulus griseus, mean ± SE
Method: (§1) To determine the cytotoxic effect of the synthesized hybrids, they were evaluated against SW480 human colon adenocarcinoma cells, its metastatic derivative SW620 and the non-malignant CHO-K1 cell line, through the sulforhodamine B assay. In this experiment, 5-FU was also included as the reference drug, as well as the parental subunits (curcumin and resveratrol) and the equimolar mixture of these. Cytotoxicity was reported as 50% inhibitory concentration (IC50 values).
(§2) Biological assays were performed using an adenocarcinoma colon cancer cell line (SW480), its metastatic derivative (SW620) and non-malignant cells (CHO-K1). These were obtained from The European Collection of Authenticated Cell Cultures (ECACC, England) and maintained in Dulbecco’s Modified Eagle Medium, supplemented with 10% heat-inactivated (56 °C) horse serum, 1% penicillin/streptomycin and 1% non-essential amino acids (Gibco Invitrogen, Carlsbad, USA). For all experiments, horse serum was reduced to 3%, and the medium was supplemented with […], 5 ng/mL selenium and […] (ITS-defined medium; Gibco, Invitrogen, Carlsbad, CA, USA).
(§3) Cytotoxicity of the synthesized hybrids, lead and reference compounds was evaluated through Sulforhodamine B (SRB) assay, a colorimetric test that is based on staining of total cellular protein of adherent cells. Cells were seeded to a final density of 20,000 cells/well in 96-well tissue culture plates and incubated at 37 °C in a humidified atmosphere at 5% CO2. All cultures were allowed to grow for 24 h, and afterward they were treated with DMSO (vehicle control 1%) or increasing concentrations (0.01–200 µM) of the synthesized hybrids, as well as curcumin and resveratrol (lead compounds), the equimolar mixture of these and 5-fluorouracil (5-FU; the standard drug). After treatment, cells were fixed with trichloroacetic acid (50% v/v) (MERCK) for a period of 1 h at 4 °C. Cell proteins were determined by staining with 0.4% (w/v) SRB (Sigma-Aldrich, United States), and then they were washed with 1% acetic acid for the removal of unbound SRB and left for air-drying. Protein bound SRB was solubilized in 10 mM Tris-base and the absorbance was measured at 492 nm in a microplate reader (Mindray MR-96A). All experiments were performed at least in triplicate.

[9] = tested on: SW620 cell line; assay: Antiproliferative activity (SRB, 2-8 days), SW620; type: cell-based, human; conditions: for viability at 10 µM / viability at 160 µM: Homo sapiens, vehicle control = 100%, read-out: Viability (%) ± SE; for viability at 10 µM: SW620, 10 µM; for viability at 160 µM: SW620, 160 µM
Method: (§4) With the aim of testing the antiproliferative effect of the most cytotoxic and selective hybrids (3e and 3i for SW480 and 3a, 3e and 3k for SW620), they were analyzed through a longer period. According to the results in comparison with the control, it was observed that the activity was time- and concentration-dependent, as evidenced by the decrease in cell viability in the highest concentrations (Table 2). […] Similar results were presented in a previous investigation by Herrera-R et al. (2018), reporting the antiproliferative effect and morphological changes in SW480 cells after treatment with different hybrids using a stilbene moiety, which highlights the potential of this scaffold in the approach to design molecules with potential activity against CRC.
(§5) Briefly, cells were seeded to a final density of 2500 cells/well in 96-well tissue culture plates and incubated in the same conditions described for cytotoxicity. […] Culture media was replaced every 48 h. After each incubation time, cells were fixed, stained and read as previously described for this technique.

[10] = tested on: SW480 cell line; assay: Antiproliferative activity (SRB, 2-8 days), SW480; type: cell-based; conditions: Homo sapiens, vehicle control = 100%, read-out: Viability (%) ± SE; for viability at 10 µM: SW480, 10 µM; for viability at 160 µM: SW480, 160 µM
Method: as §4, §5

[11] = tested on: SW620 cells (metastatic derivative of SW480); assay: Sulforhodamine B (SRB) cytotoxicity assay, SW620; type: cell-based, human; conditions: for SI (selectivity index): IC50 CHO-K1 / IC50 SW620; for IC50: Homo sapiens, SW-620, SRB, mean ± SE
Method: as §1, §2, §3

[12] = tested on: SW480 human colon adenocarcinoma cells; assay: Sulforhodamine B (SRB) cytotoxicity assay, SW480; type: cell-based; conditions: for SI (selectivity index): IC50 CHO-K1 / IC50 SW480; for IC50: SRB, mean ± SE
Method: as §1, §2, §3

[13] = tested on: LNCaP (human androgen-dependent prostate cancer) cell line; design: method as in PMID 26341135; conditions: cited from earlier work
[14] = tested on: PANC-1 human cancer cells; design: method as in doi:10.1007/s00044-016-1514-1; conditions: cited from earlier work
[15] = tested on: MDA-MB-231 human cancer cells; design: method as in doi:10.1007/s00044-016-1514-1; conditions: cited from earlier work
[16] = tested on: SiHa human cancer cells; design: method as in doi:10.1007/s00044-016-1514-1; conditions: cited from earlier work
[17] = tested on: MCF-7 human breast cancer cell line; design: method as in PMID 26174555; conditions: cited from earlier work
[18] = tested on: SKOV-3 ovarian carcinoma cells; design: method as in PMID 26174555; conditions: cited from earlier work
[19] = tested on: A549 human lung cancer cells; design: method as in PMID 26174555; conditions: cited from earlier work
[20] = tested on: H-460 human lung cancer cells; design: method as in PMID 26174555; conditions: cited from earlier work
[21] = Homo sapiens, SW480, 24 h, 24 h

Which “inhibition of tubulin polymerization at (concentration)” value [1] does the source give for COc1cc(/C=C/C(=O)/C=C/c2cc(OC)c(OC)c(OC)c2)ccc1CCc1cn(CCN2C(=O)C(=O)c3ccccc32)nn1 here?
The value was 1.2 µM.

With COc1ccc(C2NC(=O)NC(/C=C/c3ccc(O)c(OC)c3)=C2C(=O)/C=C/c2ccc(O)c(OC)c2)cc1 (centres unmarked) [Curcumin–monastrol hybrid] as the compound, how does the “mean growth percentage (GP)” value [2] read?
The value was 88.90.

For COc1cc(/C=C/c2ccc3ccc(=O)oc3c2)cc(OC)c1O [Figure 1H], which IC50 [3] is on record?
The IC50 was 1.01 µM.

With COc1ccc(/C=C/c2cc(OC)cc(OC)c2/C=C/C(=O)c2ccc(C)c(C)c2)cc1 [Figure 1I] as the compound, how does the IC50 [4] read?
The IC50 was 1.4 µg/mL (≈ 3.27 µM).

And the “tubulin polymerization inhibitory activity at (concentration)” value [5]?
The value was 2.6 µg/mL.

And the IC50 [6]?
The IC50 was 0.2 µg/mL (≈ 0.467 µM).

What about the IC50 [7] of the same compound?
The IC50 was 0.1 µg/mL (≈ 0.233 µM).

Which IC50 ([8]; 24 h) does the source give for COc1ccc(/C=C/c2ccc(C(=O)/C=C/c3ccc(O)c(OC)c3)cc2)c(OC)c1 [Hybrid 3e, (E)-1-(4-((E)-2,4-Dimethoxystyryl)phenyl)-3-(4-hydroxy-3-methoxyphenyl)prop-2-en-1-one] here?
The IC50 was 100.6 ± 1 µM.

What about the IC50 ([8]; 48 h) of the same compound?
The IC50 was 43.3 ± 6.84 µM.

And the viability at 10 µM ([9]; SW-620, 48 h, day 2)?
The viability at 10 µM was 80.6 ± 4%.

What about the viability at 160 µM ([9]; SW-620, 48 h, day 2) of the same compound?
Its viability at 160 µM is 5 ± 1%.

And the viability at 10 µM ([9]; SW-620, 96 h, day 4)?
The viability at 10 µM was 11.1 ± 4.2%.

What about the viability at 160 µM ([9]; SW-620, 96 h, day 4) of the same compound?
The viability at 160 µM was 4.1%.

What about the viability at 10 µM ([9]; SW-620, 144 h, day 6) of the same compound?
The viability at 10 µM was 4.1 ± 2.2%.

And the viability at 160 µM ([9]; SW-620, 144 h, day 6)?
Its viability at 160 µM is 0%.

What about the viability at 10 µM ([9]; SW-620, 192 h, day 8) of the same compound?
Its viability at 10 µM is 0.6 ± 0.5%.

And the viability at 160 µM ([9]; SW-620, 192 h, day 8)?
The viability at 160 µM was 0%.

And the reduction in viability ([9]; SW620, after two days of treatment, concentrations higher than 10 µM)?
The reduction in viability was “significant reduction in viability”.

What about the melting point of the same compound?
The melting point was 78 to 82 °C.

What about the viability at 10 µM ([10]; 48 h, day 2) of the same compound?
Its viability at 10 µM is 53.9 ± 5.3%.

And the viability at 160 µM ([10]; 48 h, day 2)?
The viability at 160 µM was 32.9 ± 1.3%.

And the viability at 10 µM ([10]; 96 h, day 4)?
Its viability at 10 µM is 2.3 ± 0.3%.

And the viability at 160 µM ([10]; 96 h, day 4)?
The viability at 160 µM was 0.9 ± 0.2%.

And the viability at 10 µM ([10]; 144 h, day 6)?
The viability at 10 µM was 3.8 ± 2.7%.

What about the viability at 160 µM ([10]; 144 h, day 6) of the same compound?
Its viability at 160 µM is 0.5 ± 0.2%.

What about the viability at 10 µM ([10]; 192 h, day 8) of the same compound?
Its viability at 10 µM is 5.2 ± 0.3%.

And the viability at 160 µM ([10]; 192 h, day 8)?
Its viability at 160 µM is 0.1 ± 0.1%.

And the “SI (selectivity index)” value ([11]; 24 h)?
The value was 1.81.

What about the IC50 ([11]; 24 h) of the same compound?
The IC50 was 55.5 ± 8 µM.

And the IC50 ([11]; 48 h)?
The IC50 was 20.4 ± 3.51 µM.

And the “SI (selectivity index)” value ([12]; 24 h)?
Its value is 1.85.

And the IC50 [12, 21]?
The IC50 was 54.4 ± 6.93 µM.

Which IC50 ([8]; 24 h) does the source give for COc1cc(/C=C/C(=O)c2ccc(/C=C/c3ccc(OC)c(OC)c3)cc2)ccc1O [Hybrid 3i, (E)-1-(4-((E)-3,4-dimethoxystyryl)phenyl)-3-(4-hydroxy-3-methoxyphenyl)prop-2-en-1-one] here?
Its IC50 is 104 ± 5.03 µM.

And the IC50 ([8]; 48 h)?
Its IC50 is 28.3 ± 9.3 µM.

What about the melting point of the same compound?
The melting point was 67 to 70 °C.

What about the viability at 10 µM ([10]; 48 h, day 2) of the same compound?
Its viability at 10 µM is 54.4 ± 7.4%.

And the viability at 160 µM ([10]; 48 h, day 2)?
Its viability at 160 µM is 30.3 ± 8.5%.

And the viability at 10 µM ([10]; 96 h, day 4)?
The viability at 10 µM was 2 ± 0.2%.

What about the viability at 160 µM ([10]; 96 h, day 4) of the same compound?
Its viability at 160 µM is 1.7 ± 0.1%.

And the viability at 10 µM ([10]; 144 h, day 6)?
The viability at 10 µM was 1.6 ± 0.2%.

And the viability at 160 µM ([10]; 144 h, day 6)?
The viability at 160 µM was 0.1 ± 0.1%.

What about the viability at 10 µM ([10]; 192 h, day 8) of the same compound?
The viability at 10 µM was 1.6 ± 0.3%.

What about the viability at 160 µM ([10]; 192 h, day 8) of the same compound?
The viability at 160 µM was 0.2 ± 0.1%.

And the “SI (selectivity index)” value ([11]; 24 h)?
Its value is 1.32.

What about the “SI (selectivity index)” value ([11]; 48 h) of the same compound?
The value was 0.96.

And the IC50 ([11]; 24 h)?
The IC50 was 78.9 ± 6.2 µM.

What about the IC50 ([11]; 48 h) of the same compound?
The IC50 was 29.3 ± 4.73 µM.

What about the “SI (selectivity index)” value ([12]; 24 h) of the same compound?
The value was 2.09.

And the IC50 ([12]; 48 h)?
Its IC50 is 11.5 ± 2.78 µM.

What about the IC50 [12, 21] of the same compound?
Its IC50 is 49.7 ± 4.56 µM.

What about the IC50 ([12]; Homo sapiens, SW480, 48 h, 48 h) of the same compound?
The IC50 was 11.5 to 29.2 µM.

With CCn1ccnc1/C=C/C(=O)/C=C/c1coc2ccccc2c1=O [Hybrid curcum–imidazol] as the compound, how does the IC50 [13] read?
The IC50 was 1 µM.

With COc1cc(/C=C/c2ccc(NC(=O)CSc3nnc(-c4cccc(C(F)(F)F)c4)o3)cc2)cc(OC)c1 [Resveratrol–oxadiazole hybrid F] as the compound, how does the GI50 [14] read?
Its GI50 is less than 0.1 µM.

And the GI50 [15]?
Its GI50 is less than 0.1 µM.

And the GI50 [16]?
The GI50 was less than 0.1 µM.

For C#CCn1c(=O)c(/C=C/C(=O)CC(=O)/C=C/c2ccc(O)c(OC)c2)cc2cc(C)ccc21 [curcumin–quinolone hybrid], which IC50 [17] is on record?
The IC50 was 36.2 µM.

And the IC50 [18]?
Its IC50 is 12.8 µM.

What about the IC50 [19] of the same compound?
Its IC50 is 23.9 µM.

And the IC50 [20]?
The IC50 was 21.8 µM.
